Assay results taken from patent US20240109918A1, “HETEROCYCLIC COMPOUNDS AND USES THEREOF” (Kumquat Biosciences Inc., priority 2022, published 2024).

Columns and labels:
KRASG12D = biological target: T1, KRASG12D (Homo sapiens, UniProt P01116, G12D); experiment: Bio-Biochem-PPI-HTRF Ras-SOS1 interaction assay (KRAS G12D); assay type: biochemical; conditions: 5 nM
T1 construct: made in house; host or cells: E. coli BL21 (DE3)
Method in brief: (§1)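 Compounds tested in duplicate (10 μM to 0.01 μM) for disruption of His-hSOS1 binding to GST-tagged wild-type or G12D K-Ras in HEPES pH 7.4 buffer. TR-FRET read (Eu donor, XL665 acceptor) after about 10 min or longer; IC50 derived from the 665/620 nm emission ratio.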

KRASwt = biological target: T2, KRASwt (Homo sapiens, UniProt P01116); experiment: Bio-Biochem-PPI-HTRF Ras-SOS1 interaction assay (KRAS wt); assay type: biochemical; conditions: 5 nM
T2 construct: made in house; host or cells: E. coli BL21 (DE3)
Method in brief: as §1

T1 sequence (P01116 1-188 isoform P01116-2 G12D): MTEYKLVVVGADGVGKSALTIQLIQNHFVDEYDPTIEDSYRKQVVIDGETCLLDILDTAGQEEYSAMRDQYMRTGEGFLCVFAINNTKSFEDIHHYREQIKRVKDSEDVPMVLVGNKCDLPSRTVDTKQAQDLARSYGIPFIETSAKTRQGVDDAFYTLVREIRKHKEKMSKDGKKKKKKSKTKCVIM
T2 sequence (P01116 1-188 isoform P01116-2): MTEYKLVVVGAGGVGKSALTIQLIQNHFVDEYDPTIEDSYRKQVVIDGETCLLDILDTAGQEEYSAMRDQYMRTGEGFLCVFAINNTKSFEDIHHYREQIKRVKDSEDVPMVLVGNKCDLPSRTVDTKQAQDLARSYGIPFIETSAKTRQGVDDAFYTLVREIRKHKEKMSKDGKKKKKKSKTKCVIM

SMILES | IC50 (KRASG12D) | IC50 (KRASwt)
CC1(NC(=O)N2CC3(CCCCN(c4nc(OC[C@@]56CCCN5C[C@H](F)C6)nc5c(F)c(-c6ccc(F)c7sc(N)c(C#N)c67)c(Cl)cc45)C3)C2)COC1 [compound 328, 6-(7-(2-amino-3-cyano-7-fluorobenzo[b]thiophen-4-yl)-6-chloro-8-fluoro-2-(((2R,7aS)-2-fluorotetrahydro-1H-pyrrolizin-7a(5H)-yl)methoxy)quinazolin-4-yl)-N-(3-methyloxetan-3-yl)-2,6-diazaspiro[3.6]decane-2-carboxamide] | < 5 µM | < 5 µM
Nc1nc2c(-c3c(Cl)cc4c(N5CCCC6(CNCCO6)C5)nc(OC[C@@]56CCCN5C[C@H](F)C6)nc4c3F)ccc(F)c2s1 (stereo partly drawn) [compound 159, 4-(6-chloro-8-fluoro-2-(((2R,7aS)-2-fluorotetrahydro-1H-pyrrolizin-7a(5H)-yl)methoxy)-4-(1-oxa-4,8-diazaspiro[5.5]undecan-8-yl)quinazolin-7-yl)-7-fluorobenzo[d]thiazol-2-amine] | < 5 µM | < 5 µM
N#CN1CC2(CCCN(c3nc(OC[C@@]45CCCN4C[C@H](F)C5)nc4c(F)c(-c5ccc(F)c6sc(N)nc56)c(Cl)cc34)C2)C1 [compound 177, 6-(7-(2-amino-7-fluorobenzo [d]thiazol-4-yl)-6-chloro-8-fluoro-2-(((2R,7aS)-2-fluorotetrahydro-1H-pyrrolizin-7a(5H)-yl)methoxy)quinazolin-4-yl)-2,6-diazaspiro[3.5]nonane-2-carbonitrile] | < 5 µM | < 5 µM
N#Cc1c(N)sc2c(F)ccc(-c3c(Cl)cc4c(N5CCOC6(CN(C(=O)C7(C(F)F)COC7)C6)C5)nc(OC[C@@]56CCCN5C[C@H](F)C6)nc4c3F)c12 [compound 252, 2-amino-4-(6-chloro-4-(2-(3-(difluoromethyl)oxetane-3-carbonyl)-5-oxa-2,8-diazaspiro[3.5]nonan-8-yl)-8-fluoro-2-(((2R,7aS)-2-fluorotetrahydro-1H-pyrrolizin-7a(5H)-yl)methoxy)quinazolin-7-yl)-7-fluorobenzo[b]thiophene-3-carbonitrile] | < 5 µM | < 5 µM
N#Cc1c(N)sc2c(F)ccc(-c3c(Cl)cc4c(N5CCCCC6(CN(C(=O)[C@H]7CCOC7)C6)C5)nc(OC[C@@]56CCCN5C[C@H](F)C6)nc4c3F)c12 [compound 319, 2-amino-4-(6-chloro-8-fluoro-2-(((2R,7aS)-2-fluorotetrahydro-1H-pyrrolizin-7a(5H)-yl)methoxy)-4-(2-((S)-tetrahydrofuran-3-carbonyl)-2,6-diazaspiro[3.6]decan-6-yl)quinazolin-7-yl)-7-fluorobenzo[b]thiophene-3-carbonitrile] | < 5 µM | < 5 µM
N#Cc1c(N)sc2c(F)ccc(-c3c(F)c4nc(OC[C@@]56CCCN5C[C@H](F)C6)nc(N5CCCCC6(CN(C(=O)C(F)F)C6)C5)c4c(=O)n3C3CC3)c12 [compound 233, 2-amino-4-(6-cyclopropyl-4-(2-(2,2-difluoroacetyl)-2,6-diazaspiro [3.6]decan-6-yl)-8-fluoro-2-(((2R,7aS)-2-fluorotetrahydro-1H-pyrrolizin-7a(5H)-yl)methoxy)-5-oxo-5,6-dihydropyrido[4,3-d]pyrimidin-7-yl)-7-fluorobenzo[b]thiophene-3-carbonitrile] | < 5 µM | < 5 µM
N#Cc1c(N)sc2c(F)ccc(-c3c(Cl)cc4c(N5CCCCC6(CN(C(=O)C(F)(F)C(F)(F)F)C6)C5)nc(OC[C@@]56CCCN5C[C@H](F)C6)nc4c3F)c12 [compound 202, 2-amino-4-(6-chloro-8-fluoro-2-(((2R,7aS)-2-fluorotetrahydro-1H-pyrrolizin-7a(5H)-yl)methoxy)-4-(2-(2,2,3,3,3-pentafluoropropanoyl)-2,6-diazaspiro[3.6]decan-6-yl)quinazolin-7-yl)-7-fluorobenzo[b]thiophene-3-carbonitrile] | < 5 µM | < 5 µM
CN1CCC[C@H]1COc1nc(N2CCOC3(CNC3)C2)c2cc(Cl)c(-c3ccc(F)c4sc(N)c(C#N)c34)c(F)c2n1 (single isomer, unassigned) [compound 114] | < 5 µM | < 5 µM
N#Cc1c(N)sc2c(F)ccc(-c3c(Cl)cc4c(N5CCCCC6(C5)CN(S(=O)(=O)C5CC5)C6)nc(OC[C@@]56CCCN5C[C@H](F)C6)nc4c3F)c12 [compound 195, 2-amino-4-(6-chloro-4-(2-(cyclopropylsulfonyl)-2,6-diazaspiro[3.6]decan-6-yl)-8-fluoro-2-(((2R,7aS)-2-fluorotetrahydro-1H-pyrrolizin-7a(5H)-yl)methoxy)quinazolin-7-yl)-7-fluorobenzo[b]thiophene-3-carbonitrile] | < 5 µM | < 5 µM
N#Cc1c(N)sc2c(F)ccc(-c3c(Cl)cc4c(N5CCOC6(CNC6)C5)nc(OC[C@@]56CCCN5C[C@H](F)C6)nc4c3F)c12 [compound 175, 2-amino-4-(6-chloro-8-fluoro-2-(((2R,7aS)-2-fluorotetrahydro-1H-pyrrolizin-7a(5H)-yl)methoxy)-4-(5-oxa-2,8-diazaspiro[3.5]nonan-8-yl)quinazolin-7-yl)-7-fluorobenzo[b]thiophene-3-carbonitrile] | < 5 µM | < 5 µM
N#Cc1c(N)sc2c(F)ccc(-c3c(Cl)cc4c(N5CCCCC6(CN(C(=O)c7ccnn7CCC(F)F)C6)C5)nc(OC[C@@]56CCCN5C[C@H](F)C6)nc4c3F)c12 [compound 341, 2-amino-4-(6-chloro-4-(2-(1-(3,3-difluoropropyl)-1H-pyrazole-5-carbonyl)-2,6-diazaspiro[3.6]decan-6-yl)-8-fluoro-2-(((2R,7aS)-2-fluorotetrahydro-1H-pyrrolizin-7a(5H)-yl)methoxy)quinazolin-7-yl)-7-fluorobenzo[b]thiophene-3-carbonitrile] | < 5 µM | < 5 µM

Other lines, results leading:

IC50 (KRASG12D) | IC50 (KRASwt) | SMILES
< 5 µM | < 5 µM | CN(C)CC(=O)N1CC2(CCCN(c3nc(OC[C@@]45CCCN4C[C@H](F)C5)nc4c(F)c(-c5ccc(F)c6sc(N)c(C#N)c56)c(Cl)cc34)C2)C1 [compound 144, 2-amino-4-(6-chloro-4-(2-(dimethylglycyl)-2,6-diazaspiro[3.5]nonan-6-yl)-8-fluoro-2-(((2R,7aS)-2-fluorotetrahydro-1H-pyrrolizin-7a(5H)-yl)methoxy)quinazolin-7-yl)-7-fluorobenzo[b]thiophene-3-carbonitrile]
< 5 µM | < 5 µM | N#Cc1c(N)sc2c(F)ccc(-c3c(Cl)cc4c(N5CCCCC6(CN(C(=O)N7CCOCC7)C6)C5)nc(OC[C@@]56CCCN5C[C@H](F)C6)nc4c3F)c12 [compound 325, 2-amino-4-(6-chloro-8-fluoro-2-(((2R,7aS)-2-fluorotetrahydro-1H-pyrrolizin-7a(5H)-yl)methoxy)-4-(2-(morpholine-4-carbonyl)-2,6-diazaspiro[3.6]decan-6-yl)quinazolin-7-yl)-7-fluorobenzo[b]thiophene-3-carbonitrile]
< 5 µM | < 5 µM | N#Cc1c(N)sc2c(F)ccc(-c3c(Cl)cc4c(N5CCCCC6(CN(C(=O)c7ccnn7C(F)(F)F)C6)C5)nc(OC[C@@]56CCCN5C[C@H](F)C6)nc4c3F)c12 [compound 323, 2-amino-4-(6-chloro-8-fluoro-2-(((2R,7aS)-2-fluorotetrahydro-1H-pyrrolizin-7a(5H)-yl)methoxy)-4-(2-(1-(trifluoromethyl)-1H-pyrazole-5-carbonyl)-2,6-diazaspiro[3.6]decan-6-yl)quinazolin-7-yl)-7-fluorobenzo[b]thiophene-3-carbonitrile]
< 5 µM | < 5 µM | N#Cc1c(N)sc2c(F)ccc(-c3c(Cl)cc4c(N5CCCCC6(CN(C(=O)N7CCCC7)C6)C5)nc(OC[C@@]56CCCN5C[C@H](F)C6)nc4c3F)c12 [compound 231, 2-amino-4-(6-chloro-8-fluoro-2-(((2R,7aS)-2-fluorotetrahydro-1H-pyrrolizin-7a(5H)-yl)methoxy)-4-(2-(pyrrolidine-1-carbonyl)-2,6-diazaspiro[3.6]decan-6-yl)quinazolin-7-yl)-7-fluorobenzo[b]thiophene-3-carbonitrile]
< 5 µM | < 5 µM | N#Cc1c(N)sc2c(F)ccc(-c3c(Cl)cc4c(N5CCCCC6(CN(C(=O)C7CC8CCC7O8)C6)C5)nc(OC[C@@]56CCCN5C[C@H](F)C6)nc4c3F)c12 (stereo partly drawn) [compound 303, 4-(4-(2-(7-oxabicyclo[2.2.1]heptane-2-carbonyl)-2,6-diazaspiro[3.6]decan-6-yl)-6-chloro-8-fluoro-2-(((2R,7aS)-2-fluorotetrahydro-1H-pyrrolizin-7a(5H)-yl)methoxy)quinazolin-7-yl)-2-amino-7-fluorobenzo[b]thiophene-3-carbonitrile]
< 5 µM | < 5 µM | N#Cc1c(N)sc2c(F)ccc(-c3c(Cl)cc4c(N5CCC6(CC5)CN(C(=O)C5CC5(F)F)CCO6)nc(OC[C@@]56CCCN5C[C@H](F)C6)nc4c3F)c12 (stereo partly drawn) [compound 171, 2-amino-4-(6-chloro-4-(4-(2,2-difluorocyclopropane-1-carbonyl)-1-oxa-4,9-diazaspiro[5.5]undecan-9-yl)-8-fluoro-2-(((2R,7aS)-2-fluorotetrahydro-1H-pyrrolizin-7a(5H)-yl)methoxy)quinazolin-7-yl)-7-fluorobenzo[b]thiophene-3-carbonitrile]
< 5 µM | < 5 µM | N#Cc1c(N)sc2c(F)ccc(-c3c(Cl)cc4c(N5CCCC6(CN(C(=O)N7CC[C@H]7C#N)C6)C5)nc(OC[C@@]56CCCN5C[C@H](F)C6)nc4c3F)c12 [compound 211, (2S)-1-(6-(7-(2-amino-3-cyano-7-fluorobenzo[b]thiophen-4-yl)-6-chloro-8-fluoro-2-(((2R,7aS)-2-fluorotetrahydro-1H-pyrrolizin-7a(5H)-yl)methoxy)quinazolin-4-yl)-2,6-diazaspiro[3.5]nonane-2-carbonyl)azetidine-2-carbonitrile]
